Source: patent US20250334536A1, “MODIFIED OXID[…] ITS APPLICATION” (National Yang Ming Chiao Tung University, priority 2024, published 2025)
Where two headings read alike, the source gives them in different places.

Experiments:
[1] = tested on: nanoparticle composition (enzyme nanoparticles of modified glucose oxidase of the first type crosslinked with glutaraldehyde); conditions: 35° C.
Description: Subsequently, an enzyme reaction solution containing the nanoparticle composition (concentration: 0.1 μg/mL), HRP (concentration: 0.4 μg/mL), and ABTS (concentration: 2.5 mM) is prepared. A volume of 400 μL of the reaction solution is transferred to a J-815 circular dichroism spectrometer for subsequent measurements, and a circulating constant-temperature water bath is activated to regulate the temperature to the desired setting. […] The change in absorbance over time is then recorded. Using the standard calibration curve of ABTS^+· and the rate of absorbance change, the corresponding concentration change of ABTS^+· is calculated. Based on the Michaelis-Menten kinetic model, various enzyme kinetic parameters are derived to evaluate the catalytic efficiency and stability of the nanoparticle composition under different temperature conditions.

[2] = tested on: nanoparticle composition (enzyme nanoparticles of modified glucose oxidase of the first type crosslinked with glutaraldehyde)
Description: Ethanol is then gradually added (5 μl each time) until the solution becomes turbid. Glutaraldehyde is added, and the mixture is stirred at room temperature for 1.5 hours. After the reaction, the formed nanoparticles are collected by centrifugation (12,000 g, 15 minutes). The collected precipitate is resuspended in a mixture of ethanol and deionized water, followed by centrifugation under the same conditions. Subsequently, the nanoparticles are washed twice by centrifugation under the same conditions using ultrapure water. Finally, the precipitate is resuspended in deionized water and stored at 4° C. until use.
Subsequently, the catalytic efficiency of the nanoparticle composition is investigated using the 2,2′-azino-bis(3-ethylbenzothiazoline-6-sulfonic acid) (ABTS) assay. […] The generated H2O2 then reacts with HRP to oxidize the colorless ABTS into the green ABTS radical cation (ABTS^+·), enabling colorimetric analysis of enzyme activity.

[3] = tested on: nanoparticle composition (enzyme nanoparticles of modified glucose oxidase of the first type crosslinked with glutaraldehyde); remark: listed apart in the source
Description: Deionized water solutions with varying pH values are then prepared, into which horseradish peroxidase (HRP, 0.4 μg/mL) and ABTS (2.5 mM) are added, followed by addition of the nanoparticle composition (0.1 μg/mL). 1 mL of the resulting mixture is placed in a UV-Vis spectrophotometer (model V670, JASCO), and the detection wavelength is set to 740 nm, corresponding to the characteristic absorption wavelength of ABTS^+·. Subsequently, glucose is added, and the time-dependent absorbance is measured. Using the standard calibration curve of ABTS^+· and the slope of the reaction rate, the time-dependent concentration of ABTS^+· is calculated. Enzyme kinetic parameters are then determined based on the Michaelis-Menten model, with further analysis performed using the Lineweaver-Burk model to evaluate the steady-state enzymatic behavior of the nanoparticle composition under different pH conditions.

[4] = tested on: glucose oxidase nanoparticles; conditions: comparison value; cited from earlier work
[5] = nanoparticle composition, substrate glucose

For `OC[C@H]1OC(O)[C@H](O)[C@@H](O)[C@@H]1O` (some centres unmarked) [glucose], the Kcat/KM [1] was “approximately 6.0×10^4 s^−1·M^−1”, the “catalytic efficiency (Kcat/KM), times higher than that of glucose oxidase nanoparticles” value ([2]; nanoparticle composition vs glucose oxidase nanoparticles (676 M^−1·s^−1)) was “approximately 66 times” and the “increase of catalytic efficiency (Kcat/KM) compared to modified glucose oxidase” value ([2]; nanoparticle composition vs modified glucose oxidase) was “more than 300%”. For the same compound, the Kcat [2, 5] was 421.87 s⁻¹, the Kcat/KM [2, 5] was 45200 M⁻¹ s⁻¹ and the Km [2, 5] was 9.33 mM. For the same compound, the VMax [2, 5] was 0.2646 μM^s − 1, the Kcat/KM ([3]; pH 5) was 5000 M⁻¹ s⁻¹ and the Kcat/KM ([3]; pH 7) was “approximately 4.8×10^4 s^−1·M^−1”. For the same compound, the Kcat/KM ([3]; pH 9) was 10000 M⁻¹ s⁻¹ and the “catalytic efficiency (Kcat/KM)” value [4] was 676 M⁻¹ s⁻¹.
